Patent US12064445B2, “Cytarabine conjugates for cancer therapy” (Biosight Ltd., priority 2015, dated 2024)
pIC50: −log10 of the molar value.

Assays:
[1] = test system: A2780 (Human ovarian carcinoma); assay: MTT assay, IC50 in tumor cell lines; format: cell-based; details: A2780, 72 hr
Method: (§1) The effect of Astarabine® on different cell lines was evaluated. Briefly, various cell lines were obtained from ATCC or ECACC. Hematological cells were grown in RPMI medium containing 10-20% FBS and 1% glutamine. Solid tumor cells were grown in DMEM medium containing 10-20% FBS and 1% glutamine. Cells were seeded into 96-well plates, 50,000 cells/ml, 0.2 ml per well. Test substances were diluted in saline or PBS and added in final concentrations of 0.1 nM to 10 μM, in a volume of 20 μl. The study was conducted in triplicates, PBS was used as control. Plates were incubated for 72 hr at 37° C., 5% CO2. At the end of the exposure period, a MTT assay using the MTT reagent [3-(4,5-dimethylthiazol-2-yl)-2,5-diphenyltetrazolium bromide] was performed. MTT was added to each well at a concentration of 5 mg/ml in a volume of 0.02 ml. Plates were incubated at 37° C. for 3 h. The plates were centrifuged at 3500 rpm for 5 minutes and the supernatant was aspired. The pellets which contained MTT crystals were each dissolved in 0.2 ml DMSO. Absorbance was determined using ELISA reader at a wavelength of 570 nm.

[2] = test system: CCRF-CEM (Human acute lymphoblastic leukemia T lympoblastoid line); assay: MTT assay, IC50 in tumor cell lines; format: cell-based; details: 72 hr
Method: as §1

[3] = test system: CCRF-SB (Human acute lymphoblastic leukemia); assay: MTT assay, IC50 in tumor cell lines; format: cell-based; details: 72 hr
Method: as §1

[4] = test system: HepG2 (Human hepatocellular carcinoma); assay: MTT assay, IC50 in tumor cell lines; format: cell-based; details: HepG2, 72 hr
Method: as §1

[5] = test system: K562 (Human chronic myelogenous leukemia); assay: MTT assay, IC50 in tumor cell lines; format: cell-based; details: K562, 72 hr
Method: as §1

[6] = test system: Kasumi-1 (Human acute myeloblastic leukemia); assay: MTT assay, IC50 in tumor cell lines; format: cell-based; details: Kasumi-1, 72 hr
Method: as §1

[7] = test system: L1210 (Mouse DBA/2 lymphocytic leukemia); assay: MTT assay, IC50 in tumor cell lines; format: cell-based; details: L1210, 72 hr
Method: as §1

[8] = test system: MEG 01 (Human chronic myelogenous leukemia); assay: MTT assay, IC50 in tumor cell lines; format: cell-based; details: MEG 01, 72 hr
Method: as §1

[9] = test system: Molt-4 (Human acute lymphoblastic leukemia); assay: MTT assay, IC50 in tumor cell lines; format: cell-based; details: Molt-4, 72 hr
Method: as §1

[10] = test system: NCIH727 (Human lung non small cell carcinoma); assay: MTT assay, IC50 in tumor cell lines; format: cell-based; details: NCI-H727, NCIH727, 72 hr
Method: as §1

[11] = test system: P388.D1 (Mouse lymphoid macrophage); assay: MTT assay, IC50 in tumor cell lines; format: cell-based; details: P388D1, P388.D1, 72 hr
Method: as §1

[12] = test system: RS 4:11 (Human acute lymphoblastic leukemia); assay: MTT assay, IC50 in tumor cell lines; format: cell-based; details: RS4-11, RS 4:11, 72 hr
Method: as §1

[13] = test system: SU DHL-1 (Human large cell lymphoma); assay: MTT assay, IC50 in tumor cell lines; format: cell-based; details: SU DHL-1, 72 hr
Method: as §1

[14] = test system: SU DHL-5 (Human B-cell non Hodgkin's lymphoma); assay: MTT assay, IC50 in tumor cell lines; format: cell-based; details: SU DHL-5, 72 hr
Method: as §1

[15] = test system: THP-1 (Human monocytic leukemia); assay: MTT assay, IC50 in tumor cell lines; format: cell-based; details: THP-1, 72 hr
Method: as §1

[16] = Maximal tolerated dose, single dose IP in mice; format: in vivo
Method: Ten weeks of age IRC mice were injected IP with a single dose of Astarabine®, ranging from 1428 to 8271 mg/kg (50 to 300 mg/mice, respectively). Clinical evaluation included mobility observations, food and water consumption. […] After 7 days, the mice were sampled for hematology and biochemistry and then subjected to necropsy.

in vivo = details: IRC, mouse
Method: IRC mice were injected with Astarabine® IV daily for 14 days in a dosage ranging from 400 mg/kg/day to 1200 mg/kg/day. Based on the results of this 14 days intravenous repeated dose study in mice, it was concluded that the IV maximal tolerated dose for Astarabine® is 400 mg/kg/day, administrated for 14 consecutive days. The total administered dose in this group was 5600 mg/kg. All measured parameters such as clinical observations, neurobehavioral observations, motor activity observations, body weight, food consumption, blood analysis and urine analysis, were within the normal range as compared to the non-treated group. Thus, Astarabine® in a concentration of 400 mg/kg/day was considered as the NOAEL (No Adverse Effect Level) in mice. In vivo tolerability/toxicology studies to determine the MTD of a single dose in mice are shown in FIG. 1A and of repeated doses in mice are shown in FIG. 1B.

CCRF-CEM cells = assay: Human leukemia hollow fiber model transplanted in nude mice (CCRF-CEM); format: in vivo; details: 7 consecutive days
Method: Next, the efficacy of Astarabine® in vivo was studied on a human leukemia (Molt-4 and CCRF-CEM cells) hollow fiber model transplanted in nude mice. Astarabine® was injected at doses of 6.25 mg/mouse/day and 25 mg/mouse/day intraperitoneally (IP), daily, for 7 consecutive days; cytarabine was injected at a dose of 1.5 mg/mouse/day. Leukemia cell growth was measured using the MTT assay as described in Example 1 herein above.

Work on N[C@@H](CC(=O)Nc1ccn([C@@H]2O[C@H](CO)[C@@H](O)[C@@H]2O)c(=O)n1)C(=O)O [Astarabine®] yielded a pIC50 [1] of 6.34, a pIC50 [2] of 7.39 to 7.63 and a pIC50 [3] of 4.67 to 4.96. The pIC50 [4] was 5.12 to 5.15, the pIC50 [5] was 6.29 to 6.71 and the pIC50 [6] was 5.12. The pIC50 [7] was 6.93 to 7.40, the pIC50 [8] was 5.77 and the pIC50 [9] was 7.62 to 8.40. For the same molecule, the pIC50 [10] was 5.55 to 5.89, the pIC50 [11] was 5.59 to 5.72 and the pIC50 [12] was 7.57. For the same molecule, the pIC50 [13] was 6.47 to 6.50, the pIC50 [14] was 6.71 and the pIC50 [15] was 4.28 to 5.15. For the same molecule, the MTD at 7 days ([16]; IRC, mouse, in vivo, single dose IP) was 8270 mg/kg, the “Blood samples (hematology and biochemistry)” value ([16]; single IP dose 8271 mg/kg, after 7 days of recovery) was “normal results” and the “Necropsy, tissues” value ([16]; single IP dose 1428 to 8271 mg/kg, all mice) was “normal, with no macroscopic findings”. The “IV maximal tolerated dose” value (in vivo; 14 days) was 400 mg/kg/day, the NOAEL at 14 days (in vivo; iv) was 400 mg/kg/day and the MTD at 14 days (in vivo; iv, 400 mg/kg/day) was 5600 mg/kg. For the same molecule, the “Inhibition of growth of CCRF-CEM cells” value (CCRF-CEM cells; 6.25 mg/mouse/day IP) was 71.9% and the “Inhibition of growth of CCRF-CEM cells” value (CCRF-CEM cells; 25 mg/mouse/day IP) was 72.0%.
